Measurements: US20220041606A1, “POSITIVE ALLOSTERIC MODULATORS OF THE MUSCARINIC ACETYLCHOLINE RECEPTOR M1” (Vanderbilt University, priority 2020, published 2022)

Key:
human mAChR M1 [1] = target: T1, human mAChR M1 (Homo sapiens, UniProt P11229); experiment: mAChR M1 cell-based functional assay (calcium mobilization), PAM activity: increase in the EC20 acetylcholine response; conditions: CHO-K1 cells expressing hM1; potentiation of EC20 acetylcholine response
T1 construct: host or cells: CHO-K1 cells (ATCC), stably transfected using Lipofectamine2000
T1 sequence (P11229 1-460): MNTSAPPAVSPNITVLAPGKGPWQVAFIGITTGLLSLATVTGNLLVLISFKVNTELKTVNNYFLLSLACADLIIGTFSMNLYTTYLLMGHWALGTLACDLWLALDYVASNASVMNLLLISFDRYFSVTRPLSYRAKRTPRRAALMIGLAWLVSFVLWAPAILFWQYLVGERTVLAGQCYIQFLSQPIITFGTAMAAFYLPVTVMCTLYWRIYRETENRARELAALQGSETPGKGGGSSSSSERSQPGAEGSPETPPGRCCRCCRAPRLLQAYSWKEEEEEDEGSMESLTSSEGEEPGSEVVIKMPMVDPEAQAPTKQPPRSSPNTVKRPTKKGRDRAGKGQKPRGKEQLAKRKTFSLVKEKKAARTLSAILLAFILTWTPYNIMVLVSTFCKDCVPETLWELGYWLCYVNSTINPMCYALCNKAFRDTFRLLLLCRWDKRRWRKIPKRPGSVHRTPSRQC
Procedure, shortened: (§1)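 CHO-K1 cells stably expressing hM1, loaded with Fluo-4 AM; calcium flux read on FDSS 6000. Compound (11-point, 1:3 CRC) added at 4 s, EC20 acetylcholine at 144 s, EC80 at 230 s; agonism from response to compound alone, PAM from increase in EC20 response; Emax relative to acetylcholine maximum, four-parameter fit.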

human mAChR M1 [2] = target: T1, human mAChR M1; experiment: mAChR M1 cell-based functional assay (calcium mobilization), agonist activity upon compound addition; conditions: CHO-K1 cells expressing hM1; for EC50: compound alone, before acetylcholine addition; for Emax: relative to the maximum for acetylcholine
Procedure, shortened: as §1

SMILES	EC50 (human mAChR M1 [1]) [µM]	Emax (human mAChR M1 [1]) [%]	EC50 (human mAChR M1 [2]) [µM]	Emax (human mAChR M1 [2]) [%]
Cn1nccc1-c1ccc(Cn2cc(C(=O)N[C@H]3CCCC[C@@H]3O)c3ncccc3c2=O)c(F)c1 [Compound A46, 6-(2-fluoro-4-(1-methyl-1H-pyrazol-5-yl)benzyl)-N-((1S,2S)-2-hydroxycyclohexyl)-5-oxo-5,6-dihydro-1,6-naphthyridine-8-carboxamide]	1.13	41	> 10	< 5
Cn1nccc1-c1cc(F)c(Cn2cc(C(=O)N[C@H]3CCCC[C@@H]3O)c3ncccc3c2=O)c(F)c1 [Compound A48, 6-(2,6-difluoro-4-(1-methyl-1H-pyrazol-5-yl)benzyl)-N-((1S,2S)-2-hydroxycyclohexyl)-5-oxo-5,6-dihydro-1,6-naphthyridine-8-carboxamide]	0.66	38	> 10	< 5
O=C(N[C@H]1CCOC[C@@H]1O)c1cn(Cc2c(F)cc(-c3cncs3)cc2F)c(=O)c2cccnc12 [Compound A49, 6-(2,6-Difluoro-4-(thiazol-5-yl)benzyl)-N-((3R,4S)-3-hydroxytetrahydro-2H-pyran-4-yl)-5-oxo-5,6-dihydro-1,6-naphthyridine-8-carboxamide]	0.98	65	> 10	< 5
O=C(N[C@H]1CCOC[C@@H]1O)c1cn(Cc2c(F)cc(-c3ccns3)cc2F)c(=O)c2cccnc12 [Compound A50, 6-(2,6-difluoro-4-(isothiazol-5-yl)benzyl)-N-((3R,4S)-3-hydroxytetrahydro-2H-pyran-4-yl)-5-oxo-5,6-dihydro-1,6-naphthyridine-8-carboxamide]	1.79	69	> 10	< 5
Cn1cc2c(-c3cc(F)c(Cn4cc(C(=O)N[C@H]5CCCC[C@@H]5O)c5nccnc5c4=O)c(F)c3)cccc2n1 [Compound A52, 6-(2,6-Difluoro-4-(2-methyl-2H-indazol-4-yl)benzyl)-N-((1S,2S)-2-hydroxycyclohexyl)-5-oxo-5,6-dihydropyrido[3,4-b]pyrazine-8-carboxamide]	0.4	64	4.36	50
Cn1cc(-c2ccc(Cn3cc(C(=O)N[C@H]4CCCC[C@@H]4O)c4nccnc4c3=O)c(F)c2)cn1 [Compound A54, 6-(2-fluoro-4-(1-methyl-1H-pyrazol-4-yl)benzyl)-N-((1S,2S)-2-hydroxycyclohexyl)-5-oxo-5,6-dihydropyrido[3,4-b]pyrazine-8-carboxamide]	2.37	62	> 10	26
Cn1ccc(-c2ccc(Cn3cc(C(=O)N[C@H]4CCCC[C@@H]4O)c4nccnc4c3=O)c(F)c2)n1 [Compound A55, 6-(2-fluoro-4-(1-methyl-1H-pyrazol-3-yl)benzyl)-N-((1S,2S)-2-hydroxycyclohexyl)-5-oxo-5,6-dihydropyrido[3,4-b]pyrazine-8-carboxamide]	7.9	67	> 10	12
O=C(N[C@H]1CCOC[C@@H]1O)c1cn(Cc2ccc(-n3cccn3)cc2)c(=O)c2nccnc12 [Compound A56, 6-(4-(1H-pyrazol-1-yl)benzyl)-N-((3R,4S)-3-hydroxytetrahydro-2H-pyran-4-yl)-5-oxo-5,6-dihydropyrido[3,4-b]pyrazine-8-carboxamide]	≥ 10	61	> 10	< 5
Cn1cc(-c2ccc(Cn3cc(C(=O)N[C@H]4CCOC[C@@H]4O)c4ncccc4c3=O)cc2)cn1 [Compound A58, N-((3R,4S)-3-hydroxytetrahydro-2H-pyran-4-yl)-6-(4-(1-methyl-1H-pyrazol-4-yl)benzyl)-5-oxo-5,6-dihydro-1,6-naphthyridine-8-carboxamide]	0.37	68	5.27	40
O=C(N[C@H]1CCCC[C@@H]1O)c1cn(Cc2ccc(-c3cscn3)cc2)c(=O)c2cccnc12 [Compound A59, N-((1S,2S)-2-hydroxycyclohexyl)-5-oxo-6-(4-(thiazol-4-yl)benzyl)-5,6-dihydro-1,6-naphthyridine-8-carboxamide]	0.42	45	> 10	< 5
Cn1ccc(-c2ccc(Cn3cc(C(=O)N[C@H]4CCOC[C@@H]4O)c4nccnc4c3=O)c(F)c2)n1 [Compound A63, 6-(2-fluoro-4-(1-methyl-1H-pyrazol-3-yl)benzyl)-N-((3R,4S)-3-hydroxytetrahydro-2H-pyran-4-yl)-5-oxo-5,6-dihydropyrido[3,4-b]pyrazine-8-carboxamide]	≥ 10	55	> 10	7
Cn1ccc(-c2ccc(Cn3cc(C(=O)N[C@H]4CCCCC[C@@H]4O)c4nccnc4c3=O)c(F)c2)n1 [Compound A65, 6-(2-fluoro-4-(1-methyl-1H-pyrazol-3-yl)benzyl)-N-((1S,2S)-2-hydroxycycloheptyl)-5-oxo-5,6-dihydropyrido[3,4-b]pyrazine-8-carboxamide]	5.25	63	> 10	6

Next, values leading:

EC50 (human mAChR M1 [1]) [µM]	Emax (human mAChR M1 [1]) [%]	EC50 (human mAChR M1 [2]) [µM]	Emax (human mAChR M1 [2]) [%]	SMILES
1.09	57	> 10	< 5	Cn1nccc1-c1cc(F)c(Cn2cc(C(=O)N[C@H]3CCOC[C@@H]3O)c3ncccc3c2=O)c(F)c1 [Compound A47, 6-(2,6-difluoro-4-(1-methyl-1H-pyrazol-5-yl)benzyl)-N-((3R,4S)-3-hydroxytetrahydro-2H-pyran-4-yl)-5-oxo-5,6-dihydro-1,6-naphthyridine-8-carboxamide]
1.68	75	> 10	< 5	Cc1ncc(-c2cc(F)c(Cn3cc(C(=O)N[C@H]4CCOC[C@@H]4O)c4ncccc4c3=O)c(F)c2)s1 [Compound A51, 6-(2,6-difluoro-4-(2-methylthiazol-5-yl)benzyl)-N-((3R,4S)-3-hydroxytetrahydro-2H-pyran-4-yl)-5-oxo-5,6-dihydro-1,6-naphthyridine-8-carboxamide]
9.64	48	> 10	< 5	O=C(N[C@H]1CCCC[C@@H]1O)c1cn(Cc2ccc(-n3cccn3)cc2)c(=O)c2nccnc12 [Compound A53, 6-(4-(1H-pyrazol-1-yl)benzyl)-N-((1S,2S)-2-hydroxycyclohexyl)-5-oxo-5,6-dihydropyrido[3,4-b]pyrazine-8-carboxamide]
1.15	68	> 10	25	O=C(N[C@H]1CCOC[C@@H]1O)c1cn(Cc2ccc(-c3cscn3)cc2)c(=O)c2cccnc12 [Compound A57, N-((3R,4S)-3-hydroxytetrahydro-2H-pyran-4-yl)-5-oxo-6-(4-(thiazol-4-yl)benzyl)-5,6-dihydro-1,6-naphthyridine-8-carboxamide]
0.61	34	> 10	< 5	O=C(N[C@H]1CCCCC[C@@H]1O)c1cn(Cc2ccc(-c3cscn3)cc2)c(=O)c2cccnc12 [Compound A60, N-((1S,2S)-2-hydroxycycloheptyl)-5-oxo-6-(4-(thiazol-4-yl)benzyl)-5,6-dihydro-1,6-naphthyridine-8-carboxamide]
≥ 10	33	> 10	< 5	O=C(N[C@H]1CCC[C@@H]1O)c1cn(Cc2ccc(-n3cccn3)cc2)c(=O)c2nccnc12 [Compound A61, 6-(4-(1H-pyrazol-1-yl)benzyl)-N-((1S,2S)-2-hydroxycyclopentyl)-5-oxo-5,6-dihydropyrido[3,4-b]pyrazine-8-carboxamide]
≥ 10	53	> 10	< 5	O=C(N[C@H]1CCCCC[C@@H]1O)c1cn(Cc2ccc(-n3cccn3)cc2)c(=O)c2nccnc12 [Compound A62, 6-(4-(1H-pyrazol-1-yl)benzyl)-N-((1S,2S)-2-hydroxycycloheptyl)-5-oxo-5,6-dihydropyrido[3,4-b]pyrazine-8-carboxamide]
≥ 10	41	> 10	41	Cn1ccc(-c2ccc(Cn3cc(C(=O)N[C@H]4CCC[C@@H]4O)c4nccnc4c3=O)c(F)c2)n1 [Compound A64, 6-(2-fluoro-4-(1-methyl-1H-pyrazol-3-yl)benzyl)-N-((1S,2S)-2-hydroxycyclopentyl)-5-oxo-5,6-dihydropyrido[3,4-b]pyrazine-8-carboxamide]
0.28	72	5	46	Cn1cc2c(-c3cc(F)c(Cn4cc(C(=O)N[C@H]5CCOC[C@@H]5O)c5nccnc5c4=O)c(F)c3)cccc2n1 [Compound A66, 6-(2,6-difluoro-4-(2-methyl-2H-indazol-4-yl)benzyl)-N-((3R,4S)-3-hydroxytetrahydro-2H-pyran-4-yl)-5-oxo-5,6-dihydropyrido[3,4-b]pyrazine-8-carboxamide]
